From patent publication US6716837B1, “Heterocyclic compounds for the treatment of migraine” (NPS Allelix Biopharmaceuticals, Inc., priority 1999, dated 2004) come the findings set out here.

Some results are limits rather than exact numbers.

Usually inhibition stands for how much of the control response was suppressed.

For the first assay, the target named is T1, 5-HT1D receptor (Homo sapiens, UniProt P28221).
T1 construct: expressed in transfected cells
T1 sequence (P28221 whole entry): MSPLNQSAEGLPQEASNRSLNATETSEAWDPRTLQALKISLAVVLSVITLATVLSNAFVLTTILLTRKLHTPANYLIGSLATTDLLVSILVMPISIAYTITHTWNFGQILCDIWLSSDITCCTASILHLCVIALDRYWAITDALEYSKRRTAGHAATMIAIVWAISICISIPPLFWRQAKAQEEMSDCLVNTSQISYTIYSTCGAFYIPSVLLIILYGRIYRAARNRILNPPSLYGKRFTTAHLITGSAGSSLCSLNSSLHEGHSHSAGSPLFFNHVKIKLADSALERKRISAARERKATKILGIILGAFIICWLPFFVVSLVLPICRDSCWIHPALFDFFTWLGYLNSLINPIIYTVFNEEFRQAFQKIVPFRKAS
Briefly: 5-HT1D receptor binding, inhibition of 3H-serotonin binding. Conditions: 100 nM test compound; 3H-serotonin 1 nM; membranes from recombinant cells; 60 minute incubation at 22° C.; read-out: percent inhibition of binding of the radio ligand at the 5-HT1D receptor. The protocol:
Selected compounds of the previous examples, as well as reference compounds, were evaluated for binding affinity using cell types receptive specifically to 5-HT1D and 5-HT1B ligands. The assay protocol generally entailed the incubation of membranes prepared from cells expressing the 5-HT1D or 5-HT1B subtype of 5-HT receptors with ^3H-serotonin (1 nM for 5-HT1D and 2.5 nM for 5-HT1B). Specific concentrations of the test compound were incubated with the radio ligand and the membrane homogenates prepared from the recombinant cells. After a 60 minute incubation at 22° C., the incubation was terminated by vacuum filtration. The filters were washed with buffer and counted for radioactivity using liquid scintillation spectroscopy. The affinity of the test compound for the 5-HT1D receptor is expressed as the amount (in percent) of binding of the radio ligand that is inhibited in the presence of 100 nM of test compound. A greater percent inhibition indicates greater affinity for the 5-HT1D receptor.
Turning to `CN1CC=C(c2ccc3ccn(-c4ccc(F)cc4)c3c2)CC1` [Example 19, 1-(4-Fluorophenyl)-6-(N-methyl-1,2,5,6-tetrahydropyridin-4-yl)-indole], the inhibition at 0.1 µM was greater than 75%.
`CN(C)CCc1ccc2ccn(-c3cccnc3)c2c1` [Example 19f, 6-(2-Dimethylaminoethyl)-1-(3-pyridinyl)-indole]: the inhibition at 0.1 µM is greater than 90%.
Turning to `Brc1ccc2ccn(C3CCNCC3)c2c1` [Example 10c, 6-Bromo-1-(4-piperidinyl)-indole], the inhibition at 0.1 µM is greater than 50%.
In the case of `CN1CC=C(c2ccc3ccn(-c4nccs4)c3c2)CC1` [Example 19i, 6-(N-Methyl-1,2,5,6-tetrahydropyridin-4-yl)-1-(2-thiazolyl)-indole], the inhibition at 0.1 µM is greater than 50%.
Take `CN(C)CCc1ccc2ccn(C3CCOCC3)c2c1` [Example 11b, 6-(2-Dimethylaminoethyl)-1-(tetrahydropyran4-yl)-indole]: the inhibition at 0.1 µM is greater than 90%.
Turning to `CC(C)n1ccc2ccc(C3=CCN(C)CC3)cc21` [Example 16c, 6-[N-Methyl-1,2,5,6-tetrahydropyridin-4-yl]-1-isopropyl-indole], the inhibition at 0.1 µM is greater than 50%.
The same measure, in the same setting: with `CC(C)n1ccc2ccc(CCN(C)C)cc21` [Example 2, 6-(2-(N,N-Dimethylamino)ethyl)-1-isopropyl-indole] the figure was greater than 90%; with `CC(C)n1ncc2ccc(CCN(C)C)cc21` [Example 14, 6-(2-(N,N-Dimethylamino)ethyl)-1-isopropyl-1H-indazole], greater than 90%; with `CN1CC=C(c2ccc3ccn(-c4ccsc4)c3c2)CC1` [Example 19c, 6-(N-Methyl-1,2,5,6-tetrahydropyridin-4-yl)-1-(3-thienyl)-indole], greater than 75%.
For the compound `CN1CC=C(c2ccc3ccn(-c4cccnc4)c3c2)CC1` [Example 19d, 6-(N-Methyl-1,2,5,6-tetrahydropyridin-4-yl)-1-(3-pyridyl)-indole], the inhibition at 0.1 µM is greater than 75%.

For the next assay, the target named is T1, 5-HT1D receptor. The experiment in a line: Functional assay: inhibition of forskolin-stimulated adenyl cyclase (cAMP) in CHO cells. It is filed as cell-based. The following applies: CHO cells stably expressing the 5-HT1D receptor; test compound at 100 nM and 10 μM. On the procedure: The 5HT1D and 5HT1B receptor subtypes respond to serotonin and other agonists by reducing adenyl cyclase mediated production of cyclic AMP. Particular test compounds were assayed for their ability to inhibit adenyl cyclase activity using the procedure described below. Forskolin was used to elevate the basal adenyl cyclase activity.
Compounds acting as antagonists at the 5HT1D and 5HT1B receptor subtypes will antagonize the agonist effect of serotonin and thus, will block the serotonin-induced inhibition of forskolin-stimulated adenyl cyclase activity. […]
The culture media of each well was removed, and the wells were washed once with serum free media. […] Basal adenyl cyclase activity was determined from wells with only SFM+IBMX media added.
The cells were then incubated at 37° C. for 30 minutes in a CO2 incubator. […] The pellets were discarded and the supernatants were stored at 4° C. until assayed for cAMP concentration. cAMP content for each extract was determined in duplicate by EIA (enzyme-immunoassay) using the Amersham Biotrak cAMP EIA kit (Amersham RPN 225).
Total inhibition (Io) of forskolin-stimulated adenyl cyclase activity by serotonin was determined as the difference in concentration of cAMP in the forskolin-treated cells (Cf) and serotonin-forskolin treated cells (Cd). […]
On to `CC(C)n1ccc2ccc(CCN(C)C)cc21` [Example 2, 6-(2-(N,N-Dimethylamino)ethyl)-1-isopropyl-indole], for which the “effect on forskolin stimulated production of cAMP (agonist activity)” value is “caused a decrease in the forskolin stimulated production of cAMP”.
